Activity calls are given as the source filed them. The rule behind the calls is not given here.
Assays:
RAW264.7 [1] = assay: Antiinflammatory activity in LPS-stimulated mouse RAW264.7 cells assessed as reduction in iNOS protein expression at 10 uM by immunoblot analysis relative to control; assay type: functional; set-up: scale not given: the % may be the effect or the level left
RAW264.7 [2] = assay: Antiinflammatory activity in LPS-stimulated mouse RAW264.7 cells assessed as reduction in COX2 protein expression at 10 uM by immunoblot analysis; assay type: functional
Human betaherpesvirus 5 = assay: Inhibition of HCMV endonuclease at 1 mg/mL
Salmonella enteritidis = assay: Antibacterial activity against Salmonella enteritidis ATCC 13076 at 100 ug/disk; assay type: functional, organism-based; settings: Salmonella enterica subsp. enterica serovar Enteritidis

| SMILES | Activity (RAW264.7 [1]) [%] | Activity (RAW264.7 [2]) | Activity (Human betaherpesvirus 5) | Activity (Salmonella enteritidis) |
| --- | --- | --- | --- | --- |
| C=C1C(=O)O[C@H]2C[C@H]1[C@]1(O)C/C(C)=C/CC/C(C)=C/CC[C@@]2(COC(C)=O)O1 (relative stereo) [DURUMHEMIKETALOLIDE B] | 6.4 | inactive | inactive | inactive |
| C=C1C(=O)O[C@H]2C[C@H]1[C@]1(O)C/C(C)=C/CC/C(C)=C/CC[C@]2(COC(C)=O)O1 (relative stereo) [DURUMHEMIKETALOLIDE C] | 0 | 34.7% | inactive | inactive |
| C=C1C(=O)O[C@@H]2C[C@H]1[C@]1(O)C/C(C)=C/CC/C(C)=C/CC[C@@]2(CO)O1 (relative stereo) [DURUMHEMIKETALOLIDE A] | 11 | 66.7% | inactive | inactive |
| O=C(/C=C/c1ccc(O)c(O)c1)OCCc1ccccc1 [CAFFEIC ACID PHENETHYL ESTER] | 1.5 | 70.2% | – | – |

— ChEMBL document CHEMBL1151819, “Unprecedented hemiketal cembranolides with anti-inflammatory activity from the soft coral Lobophytum durum” (2009)
